Assay [1] has as its system normal human fibroblasts (NHF-47 years). Put plainly: Elastin secreted by normal human skin fibroblasts, ELISA on culture supernatants (NHF-47 years). It counts as cell-based. The note with it: for Activity in % (stimulation of elastin secretion vs control): 48 h; for ng Elastin/μg prot/48 h: n=6. The text has this: The cells had been obtained by the method of explants as described by M. Dumas et al. in the article entitled “in vitro biosynthesis of type I and III collagens by human dermal fibroblasts from donors of increasing ages” in Mech. Ageing Dev. 73 (1994), pages 179-187. These normal human skin fibroblasts thus obtained are sown in the wells of a multi-well culture box, in an E 199 culture medium, in which 2 millimoles per liter of L-glutamine have been added. Further, for a certain number of tests, the culture medium contains sodium ascorbate at concentrations of 15 or 25 micromoles per liter. 24 hours after sowing, certain wells receive ginsenoside Rb1 or an extract of Panax 1 to 10 μg/ml via a solution in DMSO so that the final DMSO concentration be 0.1%. […] These control cultures only receive DMSO at a final concentration of 0.1% by weight. The culture is continued for 48 h. After 48 h of culture as indicated above, the elastin secreted is determined on the supernatants of the culture, by an ELISA method derived from that used for the determination of collagen, as described by M. Dumas et al in the publication cited above, except that a commercial human anti-elastin polyclonal antibody was used instead of the human anti-collagen I and III polyclonal antibodies. A standard range made from commercial soluble elastin enables converting into nanograms of elastin the values of optical density (OD) obtained from the culture supernatants. In parallel with the determination of the elastin, a determination of the cell proteins is carried out on the cultures of fibroblasts, after removal of the supernatant, in order to bring the amount of elastin determined to a fixed amount of cell proteins. The determination is carried out by using a BCA-1 kit (Bicinchoninic acid kit, marketed by Sigma, France) after dissolution of the cell plug with 0.1 N sodium hydroxide solution. The results are expressed in nanograms of elastin secreted per microgram of cellular proteins. The activity A of stimulation, expressed in percentage, is calculated according to the following formula: [formula] The results obtained on the treated cultures (n=6) and controls (n=6) are compared with the aid of the Student t test for non-paired series. Any value of p<0.05 will indicate that a significant difference exists between the secretion of elastin of the control NHFs and those treated with the products of the invention.
(An ELISA detects its analyte on a solid surface through an enzyme-linked reagent.)

The test system of assay [2] is normal human fibroblasts (NHF-50 years). Put plainly: Elastin secreted by normal human skin fibroblasts, ELISA on culture supernatants (NHF-50 years). It counts as cell-based. The text has this: The cells had been obtained by the method of explants as described by M. Dumas et al. in the article entitled “in vitro biosynthesis of type I and III collagens by human dermal fibroblasts from donors of increasing ages” in Mech. Ageing Dev. 73 (1994), pages 179-187. These normal human skin fibroblasts thus obtained are sown in the wells of a multi-well culture box, in an E 199 culture medium, in which 2 millimoles per liter of L-glutamine have been added. Further, for a certain number of tests, the culture medium contains sodium ascorbate at concentrations of 15 or 25 micromoles per liter. 24 hours after sowing, certain wells receive ginsenoside Rb1 or an extract of Panax 1 to 10 μg/ml via a solution in DMSO so that the final DMSO concentration be 0.1%. […] These control cultures only receive DMSO at a final concentration of 0.1% by weight. The culture is continued for 48 h. After 48 h of culture as indicated above, the elastin secreted is determined on the supernatants of the culture, by an ELISA method derived from that used for the determination of collagen, as described by M. Dumas et al in the publication cited above, except that a commercial human anti-elastin polyclonal antibody was used instead of the human anti-collagen I and III polyclonal antibodies. A standard range made from commercial soluble elastin enables converting into nanograms of elastin the values of optical density (OD) obtained from the culture supernatants. In parallel with the determination of the elastin, a determination of the cell proteins is carried out on the cultures of fibroblasts, after removal of the supernatant, in order to bring the amount of elastin determined to a fixed amount of cell proteins. The determination is carried out by using a BCA-1 kit (Bicinchoninic acid kit, marketed by Sigma, France) after dissolution of the cell plug with 0.1 N sodium hydroxide solution. The results are expressed in nanograms of elastin secreted per microgram of cellular proteins. The activity A of stimulation, expressed in percentage, is calculated according to the following formula: [formula] […]

For the next assay, the system named is fibrocytes. The note with it: Tanaka H. et al., 1991; cited from earlier work.
Another assay has as its system keratinocytes. The note with it: Nack-in-Kim et al., J.Invest.Dermatol. 1993; cited from earlier work.
Where [3] appears, read: product 10 μg/ml, no ascorbate, DMSO 0.1%.

We go through three compounds from patent US20020015743A1, “USE OF THE RB1, GINSENOSIDE FOR STIMULATING ELASTIN SYNTHESIS” (priority 1997, published 2002).

Several values for one entry are separate records, joined by “and”; a condition that tells them apart may be missing. Equal entries are not always repeated.

For the compound `CC(C)=CCC[C@](C)(O[C@@H]1O[C@H](CO[C@@H]2O[C@H](CO)[C@@H](O)[C@H](O)[C@H]2O)[C@@H](O)[C@H](O)[C@H]1O)[C@H]1CC[C@]2(C)[C@@H]1[C@H](O)C[C@@H]1[C@@]3(C)CC[C@H](O[C@@H]4O[C@H](CO)[C@@H](O)[C@H](O)[C@H]4O[C@@H]4O[C@H](CO)[C@@H](O)[C@H](O)[C@H]4O)C(C)(C)[C@@H]3CC[C@]12C` [G-Rb1, ginsenoside Rb1], the “Activity in % (stimulation of elastin secretion vs control)” value in assay [1] (product 10 μg/ml + Asc. 15 μM) is 16%; in assay [1] (product 10 μg/ml + Asc. 25 μM) it was 10%; in assay [1] (setting [3]), 31%; in assay [2] (NHF-50 years, product 10 μg/ml + Asc. 25 μM, 48 h), 21% and 17%. Besides, the “ng Elastin/μg prot/48 h” value in assay [1] (product 10 μg/ml + Asc. 15 μM) was 39.3 + 2.8 ng Elastin/μg prot/48 h; in assay [1] (product 10 μg/ml + Asc. 25 μM) it was 38.8 + 6.8 ng Elastin/μg prot/48 h; in assay [1] (setting [3]), 25.8 ± 2.2 ng Elastin/μg prot/48 h; in assay [2] (NHF-50 years, product 10 μg/ml + Asc. 25 μM, 48 h, n=6) it was 26.3 + 3.7 ng Elastin/μg prot/48 h and 32 + 4.3 ng Elastin/μg prot/48 h and 28 + 2.2 ng Elastin/μg prot/48 h. The “synthesis of elastin by the fibroblasts (conclusion in words)” value in assay [2] (conclusion from Tables 1 to 3 (NHF-47 and NHF-50 years), stimulation augments with concentration) is “strongly stimulate the synthesis of elastin”.
In the case of `CC(C)=CCC[C@](C)(O[C@@H]1O[C@H](CO[C@@H]2OC[C@H](O)[C@H](O)[C@H]2O)[C@@H](O)[C@H](O)[C@H]1O)[C@H]1CC[C@]2(C)[C@@H]1[C@H](O)C[C@@H]1[C@@]3(C)CC[C@H](O[C@@H]4O[C@H](CO)[C@@H](O)[C@H](O)[C@H]4O[C@@H]4O[C@H](CO)[C@@H](O)[C@H](O)[C@H]4O)C(C)(C)[C@@H]3CC[C@]12C` [ginsenoside Rb2], the “synthesis of glycosaminoglycans (GAG) by the fibrocytes” value with fibrocytes is “effective to stimulate the synthesis of glycosaminoglycans (GAG)”.
On to ginsenoside, for which, in the assay on keratinocytes, the “action on the proliferation of the keratinocytes” value is “inhibitory action”.
